Experimental data published in patent US20030004172A1, “Fused pyrimidinone matrix metalloproteinase inhibitors” (priority 2001, published 2003).
Like-named read-outs stand apart in the source and are kept apart here.

Experiments:
[1] = target: MMP-3CD (catalytic domain of stromelysin-1) (Homo sapiens, UniProt P08254); assay: Thiopeptolide substrate hydrolysis inhibition assay, MMP-3CD; format: biochemical; settings: Table II; micromolar concentration; MES buffer pH 6.0
Description: (§1) Thiopeptolide substrates show virtually no decomposition or hydrolysis at or below neutral pH in the absence of a matrix metalloproteinase enzyme.
It should be appreciated that the assay buffer used with MMP-3CD is 50 mM N-morpholinoethanesulfonate (“MES”) at pH 6.0 rather than the HEPES buffer at pH 7.0 described above.

[2] = target: MMP-13CD (catalytic domain of collagenase-3) (Homo sapiens, UniProt P45452); assay: Thiopeptolide substrate hydrolysis inhibition assay, MMP-13CD; format: biochemical
Source text: as §1

MMP-12CD = target: T1, MMP-12CD (Homo sapiens, UniProt P39900); assay: Thiopeptolide substrate hydrolysis inhibition assay, MMP-12CD; format: biochemical; settings: Table II; micromolar concentration; HEPES pH 7.0
T1 construct: 12CD
T1 sequence (P39900 106-263 limits assumed): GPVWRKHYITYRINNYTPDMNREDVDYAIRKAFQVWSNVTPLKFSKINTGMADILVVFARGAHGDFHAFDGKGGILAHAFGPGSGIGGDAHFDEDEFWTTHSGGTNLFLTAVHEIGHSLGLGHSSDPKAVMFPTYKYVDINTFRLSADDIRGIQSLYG
Source text: as §1

[3] = target: MMP-14CD (catalytic domain of MMP-14) (Homo sapiens, UniProt P50281); assay: Thiopeptolide substrate hydrolysis inhibition assay, MMP-14CD; format: biochemical; settings: Table II; micromolar concentration; HEPES pH 7.0
Source text: as §1

[4] = target: T2, MMP-7FL (full-length matrilysin) (Homo sapiens, UniProt P09237); assay: Thiopeptolide substrate hydrolysis inhibition assay, MMP-7FL; format: biochemical; settings: Table II; micromolar concentration; HEPES pH 7.0
T2 sequence (P09237 95-267): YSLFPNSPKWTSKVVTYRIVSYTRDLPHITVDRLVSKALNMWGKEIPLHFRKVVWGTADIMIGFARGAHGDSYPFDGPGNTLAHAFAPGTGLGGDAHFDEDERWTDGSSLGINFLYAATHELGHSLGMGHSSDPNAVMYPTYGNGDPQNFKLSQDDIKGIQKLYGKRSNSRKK
Source text: as §1

[5] = target: T3, MMP-1FL (full-length interstitial collagenase) (Homo sapiens, UniProt P03956); assay: Thiopeptolide substrate hydrolysis inhibition assay, MMP-1FL; format: biochemical; settings: Table II; micromolar concentration; HEPES pH 7.0
T3 sequence (P03956 100-469): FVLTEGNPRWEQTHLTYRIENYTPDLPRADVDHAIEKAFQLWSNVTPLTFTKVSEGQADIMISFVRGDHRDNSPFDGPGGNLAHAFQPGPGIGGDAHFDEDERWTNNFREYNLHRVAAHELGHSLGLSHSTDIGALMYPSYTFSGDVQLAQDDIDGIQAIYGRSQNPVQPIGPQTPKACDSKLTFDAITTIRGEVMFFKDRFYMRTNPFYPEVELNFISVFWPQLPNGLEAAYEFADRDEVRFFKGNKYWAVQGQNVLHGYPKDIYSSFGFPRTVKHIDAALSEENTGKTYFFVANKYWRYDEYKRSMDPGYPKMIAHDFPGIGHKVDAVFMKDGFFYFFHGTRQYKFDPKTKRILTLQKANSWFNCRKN
Source text: as §1

[6] = target: MMP-9FL (full-length Gelatinase B) (Homo sapiens, UniProt P14780); assay: Thiopeptolide substrate hydrolysis inhibition assay, MMP-9FL; format: biochemical; settings: Table II; micromolar concentration; HEPES pH 7.0
Sequence of MMP-9FL (full-length Gelatinase B) (P14780 94-707, species assumed): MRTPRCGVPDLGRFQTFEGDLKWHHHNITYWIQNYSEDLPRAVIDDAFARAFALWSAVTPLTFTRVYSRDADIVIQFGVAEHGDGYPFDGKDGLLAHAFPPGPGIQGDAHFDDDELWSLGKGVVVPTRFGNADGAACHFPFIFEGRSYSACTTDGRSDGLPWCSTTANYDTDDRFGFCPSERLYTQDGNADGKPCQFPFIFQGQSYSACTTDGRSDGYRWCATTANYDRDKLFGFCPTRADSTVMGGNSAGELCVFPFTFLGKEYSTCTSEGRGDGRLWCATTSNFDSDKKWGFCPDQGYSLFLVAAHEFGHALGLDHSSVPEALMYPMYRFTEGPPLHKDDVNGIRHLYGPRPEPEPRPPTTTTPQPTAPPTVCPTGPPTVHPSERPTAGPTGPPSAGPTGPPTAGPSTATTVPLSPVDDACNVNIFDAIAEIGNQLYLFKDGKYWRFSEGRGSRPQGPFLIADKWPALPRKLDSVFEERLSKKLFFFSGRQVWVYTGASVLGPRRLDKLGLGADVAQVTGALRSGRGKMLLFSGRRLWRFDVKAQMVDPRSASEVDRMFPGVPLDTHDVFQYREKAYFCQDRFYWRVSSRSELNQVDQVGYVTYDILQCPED
Source text: as §1

[7] = target: T4, MMP-2FL (full length Gelatinase A) (Homo sapiens, UniProt P08253); assay: Thiopeptolide substrate hydrolysis inhibition assay, MMP-2FL; format: biochemical; settings: Table II; micromolar concentration; HEPES pH 7.0
T4 sequence (P08253 110-660): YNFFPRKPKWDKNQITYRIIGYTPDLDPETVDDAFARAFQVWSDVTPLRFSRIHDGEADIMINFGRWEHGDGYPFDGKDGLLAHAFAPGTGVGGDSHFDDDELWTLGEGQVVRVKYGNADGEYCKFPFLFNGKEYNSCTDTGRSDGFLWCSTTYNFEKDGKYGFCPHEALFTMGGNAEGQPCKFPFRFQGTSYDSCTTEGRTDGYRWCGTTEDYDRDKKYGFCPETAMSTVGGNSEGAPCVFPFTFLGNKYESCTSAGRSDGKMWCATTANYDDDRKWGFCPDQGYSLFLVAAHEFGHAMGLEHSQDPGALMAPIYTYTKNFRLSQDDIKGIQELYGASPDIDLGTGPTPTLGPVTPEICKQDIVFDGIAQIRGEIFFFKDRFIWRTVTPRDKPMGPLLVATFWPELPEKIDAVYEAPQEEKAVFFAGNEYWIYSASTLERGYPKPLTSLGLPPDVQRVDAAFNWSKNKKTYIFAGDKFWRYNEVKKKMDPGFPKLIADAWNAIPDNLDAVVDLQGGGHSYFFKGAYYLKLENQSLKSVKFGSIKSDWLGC
Source text: as §1

[8] = Table I, thiopeptolide substrate, HEPES pH 7.0, 22° C., read-out: MMP-13CD IC50
[9] = Table II, micromolar concentration, HEPES pH 7.0, read-out: IC50 MMP-13CD

Sequence of MMP-3CD (catalytic domain of stromelysin-1) (P08254 100-272 limits assumed): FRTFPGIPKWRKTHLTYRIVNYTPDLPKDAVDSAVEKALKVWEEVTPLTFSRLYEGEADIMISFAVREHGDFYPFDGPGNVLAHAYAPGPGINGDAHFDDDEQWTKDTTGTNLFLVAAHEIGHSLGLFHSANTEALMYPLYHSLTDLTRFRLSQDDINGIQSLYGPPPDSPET

melting point [°C]	IC50 [1] [µM]	IC50 [2, 8] [µM]	IC50 [2, 9] [µM]	SMILES	IC50 (MMP-12CD) [µM]	IC50 [3] [µM]	IC50 [4] [µM]	IC50 [5] [µM]	IC50 [6] [µM]	IC50 [7] [µM]
195 to 197	18	0.74	0.61	O=C(OCc1ccccc1)c1cc2c(=O)n(Cc3ccccc3)c(=O)[nH]c2s1 [Example 1, 3-Benzyl-2,4-dioxo-1,2,3,4-tetrahydro-thieno[2,3-d]pyrimidine-6-carboxylic acid benzyl ester]						
	16		0.0038	COc1cccc(CNC(=O)c2cc3c(=O)n(Cc4ccc(CC(=O)O)cc4)c(=O)n(C)c3s2)c1 [Example 39, {4-[6-(3-Methoxy-benzylcarbamoyl)-1-methyl-2,4-dioxo-1,4-dihydro-2H-thieno[2,3-d]pyrimidin-3-ylmethyl]-phenyl}-acetic acid]	10					
	30		0.038	COc1cccc(CNC(=O)c2cc3c(=O)n(Cc4ccc(S(=O)(=O)N5CCC(C)CC5)cc4)c(=O)n(C)c3s2)c1 [Example 47, 1-Methyl-3-[4-(4-methyl-piperidine-1-sulfonyl)-benzyl]-2,4-dioxo-1,2,3,4-tetrahydro-thieno[2,3-d]pyrimidine-6-carboxylic acid 3-methoxy-benzylamide]	30	10	14	30	30	30
	23	0.26	0.26	O=C(OCc1ccncc1)c1cc2c(=O)n(Cc3ccc(Br)cc3)c(=O)[nH]c2s1 [Example 49, 3-(4-Bromo-benzyl)-2,4-dioxo-1,2,3,4-tetrahydro-thieno[2,3-d]pyrimidine-6-carboxylic acid pyridin-4-ylmethyl ester]						
	27	0.0785	0.0785	COc1ccc(CNC(=O)c2cc3c(=O)n(Cc4ccc(S(N)(=O)=O)cc4)c(=O)n(C)c3s2)cc1 [Example 217, 1-Methyl-2,4-dioxo-3-(4-sulfamoyl-benzyl)-1,2,3,4-tetrahydro-thieno[2,3-d]pyrimidine-6-carboxylic acid 4-methoxy-benzylamide]	30				30	
	13	0.00895	0.009	CCCCNC(=O)NS(=O)(=O)c1ccc(Cn2c(=O)c3cc(C(=O)NCc4cccc(OC)c4)sc3n(C)c2=O)cc1 [Example 231a]	30	30	46		91	50
		0.64	0.64	COC(=O)c1ccc(Cn2c(=O)c3cc(C(N)=O)sc3n(C)c2=O)cc1C [Example 249a]		30	30		30	30
	6	0.0036	0.0036	Cn1c(=O)n(Cc2ccccc2)c(=O)c2cc(C(=O)OCc3ccncc3)sc21 [Example 303, 3-Benzyl-1-methyl-2,4-dioxo-1,2,3,4-tetrahydro-thieno[2,3-d]pyrimidine-6-carboxylic acid pyridin-4-ylmethyl ester]			32		30	

SMILES	melting point [°C]	IC50 [1] [µM]	IC50 [2, 8] [µM]	IC50 [2, 9] [µM]	IC50 (MMP-12CD) [µM]	IC50 [3] [µM]	IC50 [4] [µM]	IC50 [5] [µM]	IC50 [6] [µM]	IC50 [7] [µM]
COc1ccc(CNC(=O)c2cc3c(=O)n(Cc4cccc(OC)c4)c(=O)n(C)c3s2)cc1 [Example 63, 3-(3-Methoxy-benzyl)-1-methyl-2,4-dioxo-1,2,3,4-tetrahydro-thieno[2,3-d]pyrimidine-6-carboxylic acid 4-methoxy-benzylamide]		18	0.11	0.11	30	30	30	30	30	30
COC(=O)c1ccc(Cn2c(=O)c3cc(C(=O)NCc4ccc(OC)cc4)sc3n(C)c2=O)cc1OC [Example 228, 2-Methoxy-4-[6-(4-methoxy-benzylcarbamoyl)-1-methyl-2,4-dioxo-1,4-dihydro-2H-thieno[2,3-d]pyrimidin-3-ylmethyl]-benzoic acid methyl ester]		15	0.435	0.435	30	30	10	30	30	30
COc1ccc(CNC(=O)c2cc3c(=O)n(CCOc4ccc(Br)cc4)c(=O)n(C)c3s2)cc1 [Example 232, 3-[2-(4-Bromo-phenoxy)-ethyl]-1-methyl-2,4-dioxo-1,2,3,4-tetrahydro-thieno[2,3-d]pyrimidine-6-carboxylic acid 4-methoxy-benzylamide]		17	0.175	0.18	30	30	30	30	30	30
COc1cccc(CNC(=O)c2cc3c(=O)n(CCS(=O)(=O)c4ccc(Cl)cc4)c(=O)n(C)c3s2)c1 [Example 246, 3-[2-(4-Chloro-benzenesulfonyl)-ethyl]-1-methyl-2,4-dioxo-1,2,3,4-tetrahydro-thieno[2,3-d]pyrimidine-6-carboxylic acid 3-methoxy-benzylamide]		23	5.65	5.65	30	36	48		30	30
COc1ccc(CNC(=O)c2cc3c(=O)n(Cc4ccc([N+](=O)[O-])nc4)c(=O)n(C)c3s2)cc1 [Example 369, 1-Methyl-3-(6-nitro-pyridin-3-ylmethyl)-2,4-dioxo-1,2,3,4-tetrahydro-thieno[2,3-d]pyrimidine-6-carboxylic acid 4-methoxy-benzylamide]		10	1.04	1.04	30	30	30	10	30	30
